The values that follow come from patent publication US20120219536A1, “PURINE-TARGETED DIAGNOSIS AND THERAPY OF WOUNDS” (Queensland University of Technology, priority 2009, published 2012).

Data set [1] has as its target T1, xanthine oxidase (Homo sapiens, UniProt P47989).
T1 construct: from tissue; host or cells: pooled chronic wound fluid (CWF), retentate of 3K ultrafiltration
The data set can be described thus: Xanthine oxidase activity and inhibition in pooled chronic wound fluid (CWF), RP-HPLC. The following applies: pooled CWF retentate, 10 μmol/L allopurinol, 37° C., 2.5 hr. Type of data set: biochemical. As for the experimental part: Additionally, samples were treated with allopurinol, a specific XO inhibitor, and the production of the metabolite oxypurinol determined at A254. Firstly, CWF was concentrated by centrifugation using nanosep 3K omega filters (PALL) at 10,000 g for 10 min at 4° C. The retentate was resuspended with 10 mM Tris-HCl buffer, pH 8.0 containing either 10 μmol/L of xanthine or allopurinol, then incubated at 37° C. for 2.5 hr in the ultrafiltration unit. After incubation, the reaction mixture was de-proteinised as per the manufacturer's instructions and the resulting filtrates analysed using reverse phase HPLC as previously outlined.
In further support of this finding, XO enzyme inhibition was assayed using a potent XO inhibitor, allopurinol. Allopurinol is rapidly metabolised by XO to generate the active metabolite, oxypurinol, which itself is an inhibitor of XO. […] Western blotting confirmed the presence of the enzyme in wound fluid (data not shown).

The subject of data set [2] is mice. The note with it: cited from earlier work.

Like-named read-outs stand apart in the source and are kept apart here.

T1 sequence (P47989 whole entry): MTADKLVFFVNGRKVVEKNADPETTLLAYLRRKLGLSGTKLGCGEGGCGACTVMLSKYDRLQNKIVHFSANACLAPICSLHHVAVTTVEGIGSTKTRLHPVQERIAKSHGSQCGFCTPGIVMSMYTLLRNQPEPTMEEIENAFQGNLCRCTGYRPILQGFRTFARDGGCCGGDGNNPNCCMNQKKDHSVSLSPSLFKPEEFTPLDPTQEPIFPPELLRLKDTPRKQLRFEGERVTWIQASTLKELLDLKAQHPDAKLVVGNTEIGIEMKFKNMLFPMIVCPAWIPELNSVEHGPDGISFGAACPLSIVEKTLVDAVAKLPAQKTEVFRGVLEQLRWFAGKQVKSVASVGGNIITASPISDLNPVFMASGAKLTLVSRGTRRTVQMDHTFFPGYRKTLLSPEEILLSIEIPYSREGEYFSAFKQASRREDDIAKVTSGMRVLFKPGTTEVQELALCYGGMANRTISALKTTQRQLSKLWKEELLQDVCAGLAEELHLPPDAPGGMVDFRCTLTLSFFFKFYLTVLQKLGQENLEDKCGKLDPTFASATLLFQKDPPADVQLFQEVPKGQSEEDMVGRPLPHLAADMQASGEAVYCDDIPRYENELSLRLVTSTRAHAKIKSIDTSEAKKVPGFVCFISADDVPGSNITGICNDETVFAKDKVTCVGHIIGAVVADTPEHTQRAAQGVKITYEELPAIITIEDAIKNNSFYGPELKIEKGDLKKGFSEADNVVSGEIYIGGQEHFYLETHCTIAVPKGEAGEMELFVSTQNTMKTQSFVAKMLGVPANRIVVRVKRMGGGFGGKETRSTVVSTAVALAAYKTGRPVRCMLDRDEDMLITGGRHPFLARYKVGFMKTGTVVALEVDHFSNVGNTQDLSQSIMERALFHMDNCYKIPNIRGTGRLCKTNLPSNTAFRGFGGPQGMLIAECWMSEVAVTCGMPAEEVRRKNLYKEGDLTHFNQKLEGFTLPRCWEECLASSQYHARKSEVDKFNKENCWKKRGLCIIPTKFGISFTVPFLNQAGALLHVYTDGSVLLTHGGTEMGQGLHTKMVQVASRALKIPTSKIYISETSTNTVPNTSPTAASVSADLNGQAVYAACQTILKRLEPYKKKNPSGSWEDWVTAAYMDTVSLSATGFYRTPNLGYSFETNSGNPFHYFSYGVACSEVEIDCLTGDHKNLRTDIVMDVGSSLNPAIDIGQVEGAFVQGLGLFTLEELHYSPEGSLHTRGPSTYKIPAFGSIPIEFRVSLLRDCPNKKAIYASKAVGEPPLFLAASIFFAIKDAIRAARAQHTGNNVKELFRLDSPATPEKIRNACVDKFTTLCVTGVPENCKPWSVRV

Take “1,4-dihydropyrazolo[4,3-d]pyrimidin-7-one [Allopurinol]”: the “production of the metabolite oxypurinol by XO” value in data set [1] (HPLC at A254) is “a peak consistent with the retention time of oxypurinol standard was detected”. Moreover, the “XO enzyme inhibition: production of uric acid” value in data set [1] (HPLC at A280) was “did not reveal a peak corresponding to uric acid”. Besides, the “50% lethal dose (LD50)” value in data set [2] (given intraperitoneally) is given as 160 mg/kg; in data set [2] (given orally), 700 mg/kg.
